Values quoted from earlier work in patent US20090304576A1, “DEVICE FOR DELIVERY OF ANTI-CANCER AGENTS TO TISSUE” (priority 2006, published 2009).

Details: diffusion in solid tissue such as brain; estimated

SMILES: O=NN(CCCl)C(=O)NCCCl [carmustine]
- maximum effective range from a source: about 5 mm
